Reference: PubChem BioAssay (NCI)
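1) Cells in 96-well plates. 2) Compound, 48 h, 5 concentrations. 3) Linear interpolation between surrounding doses. 4) Unreached endpoint = highest concentration. At the GI50, growth is halved. TGI: concentration producing complete growth inhibition.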

Experiments:
Assay in all cases: NCI tumour cell line growth inhibition, 48 h
HOP-62 NSCLC = system: HOP-62 NSCLC
OVCAR-8 ovarian = system: OVCAR-8 ovarian
CCRF-CEM leukemia = system: CCRF-CEM leukemia
A498 renal = system: A498 renal
PC-3 prostate = system: PC-3 prostate
OVCAR-4 ovarian = system: OVCAR-4 ovarian
RXF 393 renal = system: RXF 393 renal
UACC-257 melanoma = system: UACC-257 melanoma
HL-60(TB) leukemia = system: HL-60(TB) leukemia
LOX IMVI melanoma = system: LOX IMVI melanoma

Compound | GI50 (HOP-62 NSCLC) | TGI (HOP-62 NSCLC) | GI50 (OVCAR-8 ovarian) | TGI (OVCAR-8 ovarian) | GI50 (CCRF-CEM leukemia) | TGI (CCRF-CEM leukemia) | GI50 (A498 renal) | TGI (A498 renal) | GI50 (PC-3 prostate) | TGI (PC-3 prostate) | GI50 (OVCAR-4 ovarian) | TGI (OVCAR-4 ovarian) | GI50 (RXF 393 renal) | TGI (RXF 393 renal) | GI50 (UACC-257 melanoma) | TGI (UACC-257 melanoma) | TGI (HL-60(TB) leukemia) | TGI (LOX IMVI melanoma) | GI50 (HL-60(TB) leukemia) | GI50 (LOX IMVI melanoma)
COc1cc2nc(-c3ccc(Cl)cc3)cc(OCCCN3CCCCC3)c2cc1OC | 2.37 µM | > 100 µM | 1.77 µM | > 100 µM | 2.79 µM | > 100 µM | 1.4 µM | 3.82 µM | 1.74 µM | > 100 µM | 3.85 µM | > 100 µM | 1.08 µM | 3.9 µM | 1.92 µM | 4.46 µM | – | – | – | –
Cc1cc([N+](=O)[O-])ccc1Nc1cccc(Cl)c1C | – | 28 µM | – | 30.3 µM | – | 47.2 µM | – | 29 µM | – | – | – | 31.4 µM | – | 34.5 µM | – | 40.4 µM | 41.6 µM | 33.9 µM | – | –
[N-]=[N+]=NC12CC3C4CC5CC3C(C1)C(C5)C4C2 | – | > 100 µM | – | > 100 µM | – | > 100 µM | – | > 100 µM | – | – | – | > 100 µM | – | – | – | > 100 µM | – | > 100 µM | – | –
O=[N+]([O-])c1ccc(C2=Nn3cnnc3SC2)o1 | – | 89.5 µM | – | 53.9 µM | – | 51.1 µM | – | 32.3 µM | – | – | – | – | – | 32.9 µM | – | 29.6 µM | 37.6 µM | 5.99 µM | – | –
CC(C)=CC/C=C(/C)[C@H]1CC[C@]2(C)[C@@H]1CC[C@@H]1[C@@]3(C)CCCNC(C)(C)[C@@H]3CC[C@]12C | 1.9 µM | 3.9 µM | – | – | 2.84 µM | 11.3 µM | 13.8 µM | 29.3 µM | 1.62 µM | 3.59 µM | 3.33 µM | 11.4 µM | 1.72 µM | 3.31 µM | 3.05 µM | 11 µM | 3.73 µM | – | 1.8 µM | –
COc1ccc(C(C)=O)cc1N1C(=O)C2C(C1=O)C1(c3ccccc3)C(=O)C2(c2ccccc2)C(c2ccc(C)cc2)=C1c1ccc(C)cc1 (centres undefined) | > 100 µM | > 100 µM | > 100 µM | > 100 µM | > 100 µM | > 100 µM | – | – | > 100 µM | > 100 µM | > 100 µM | > 100 µM | > 100 µM | > 100 µM | > 100 µM | > 100 µM | > 100 µM | > 100 µM | > 100 µM | > 100 µM
COc1cccc(/C=C/c2cc(OC)c(OC)c(OC)c2)c1 | – | > 100 µM | – | > 100 µM | – | > 100 µM | – | > 100 µM | – | – | – | – | – | – | – | > 100 µM | – | – | – | –
COC(=O)c1cc2c(s1)C(=O)c1ccccc1-2 | – | > 100 µM | – | > 100 µM | – | > 100 µM | – | > 100 µM | – | – | – | > 100 µM | – | > 100 µM | – | > 100 µM | > 100 µM | > 100 µM | – | –
CCCCCCCCCCCCCC1=NC(C)(C)CN1C(C)C | 1.73 µM | 3.17 µM | 1.78 µM | 3.42 µM | 1.54 µM | 3.43 µM | 2.16 µM | 4.58 µM | 1.34 µM | 3.03 µM | 1.76 µM | 3.48 µM | 1.62 µM | 3.11 µM | 1.92 µM | 3.39 µM | 2.72 µM | – | 1.09 µM | –
S=C(Nc1ccccc1)N(/N=C/C=C/c1ccccc1)c1nnc(-c2ccccc2)c(-c2ccccc2)n1 | – | > 100 µM | – | > 100 µM | – | > 100 µM | – | > 100 µM | – | – | – | > 100 µM | – | > 100 µM | – | > 100 µM | 52.4 µM | > 100 µM | – | –
Cn1c2ccccc2c2c3c(c4c5cc(Br)ccc5n(C)c4c21)C(=O)N(O)C3=O | – | – | 0.113 µM | > 100 µM | 0.0323 µM | 0.185 µM | – | – | 0.497 µM | > 100 µM | – | – | 0.217 µM | 0.703 µM | 0.264 µM | > 100 µM | – | – | – | –
O=C(OC(CNc1cc(=O)n(Cc2ccccc2)c(=O)n1Cc1ccccc1)CN1CCCC1)c1ccccc1 (centres undefined) | > 100 µM | > 100 µM | > 100 µM | > 100 µM | 23.7 µM | > 100 µM | > 100 µM | > 100 µM | > 100 µM | > 100 µM | > 100 µM | > 100 µM | 76.1 µM | > 100 µM | > 100 µM | > 100 µM | – | > 100 µM | – | > 100 µM
O=C(/C=C/c1ccccc1O)c1ccccc1O | – | > 100 µM | – | > 100 µM | – | > 100 µM | – | > 100 µM | – | – | – | > 100 µM | – | > 100 µM | – | > 100 µM | > 100 µM | > 100 µM | – | –
CC(C)CCN1c2nc(Nc3cc(F)c(O)c(F)c3)ncc2N(C)C(=O)C1C (centres undefined) | 6.66 µM | > 100 µM | 17.6 µM | > 100 µM | 1.52 µM | 23.6 µM | 18.3 µM | 54.6 µM | – | – | 18.6 µM | > 100 µM | 7.94 µM | 31.4 µM | 17.1 µM | > 88.2 µM | 6.47 µM | 20.8 µM | 2.14 µM | 4.11 µM
N#Cc1c(NN)n(C2OC(CO)C(O)C2O)c2ncnc(N)c12 (centres undefined) | 0.247 µM | 2.02 µM | 0.257 µM | 7.56 µM | 0.13 µM | 0.605 µM | – | – | 0.0778 µM | – | 0.0538 µM | 3.24 µM | 0.0398 µM | 0.415 µM | 0.267 µM | 1.66 µM | 0.109 µM | 0.328 µM | 0.022 µM | 0.0513 µM
CCC[CH2][Sn]1([CH2]CCC)[O]N=C(c2ccccc2)C(c2ccccc2)[O]1 (centres undefined) | 3.24 µM | 7.93 µM | 1.87 µM | 3.96 µM | 0.29 µM | 2.42 µM | 2.59 µM | 4.82 µM | – | – | 2.13 µM | 4.18 µM | 1.5 µM | 2.87 µM | 2.02 µM | 4.51 µM | 1.42 µM | 2.86 µM | 0.263 µM | 1.38 µM
CCCCC(C(=O)C(=O)NC1C2CC3CC(C2)CC1C3)C(=O)C(C)C (centres undefined) | – | > 100 µM | – | > 100 µM | – | > 100 µM | – | > 100 µM | – | – | – | > 100 µM | – | > 100 µM | – | > 100 µM | > 100 µM | > 100 µM | – | –
